Several values for one entry are separate records, joined by “and”; a condition that tells them apart may be missing. Equal entries are not always repeated. Where two headings read alike, the source gives them in different places.
Key:
Type in all cases: in vivo
[1] = system: Spodoptera littoralis (Egyptian cotton leaf worm); assay: Spodoptera littoralis larvicide L1, feeding/contact, cotton leaf discs; settings: single compound
Source text: (§1) The action to be expected E for a given active ingredient combination obeys the so-called COLBY formula and can be calculated as follows (COLBY, S.R. “Calculating synergistic and antagonistic responses of herbicide combination”. Weeds, Vol. 15, pages 20-22; 1967):
(§2) ppm=milligrams of active ingredient (=a.i.) per liter of spray mixture X=% action by active ingredient A) using p ppm of active ingredient Y=% action by active ingredient B) using q ppm of active ingredient.
(§3) According to COLBY, the expected (additive) action of active ingredients A)+B) using p+q ppm of active ingredient is
(§4) If the action actually observed (O) is greater than the expected action (E), then the action of the combination is super-additive, i.e. there is a synergistic effect. In mathematical terms the synergism factor SF corresponds to O/E. In the agricultural practice an SF of ≧1.2 indicates significant improvement over the purely complementary addition of activities (expected activity), while an SF of ≦0.9 in the practical application routine signals a loss of activity compared to the expected activity.
Spodoptera Littoralis (Egyptian Cotton Leaf Worm)
(Larvicide L1, Feeding/Contact)
Cotton leaf discs are placed on agar in Petri dishes and sprayed with test solutions in an application chamber. After drying, the leaf discs are infested with 10 L1 larvae. The samples are checked for mortality 5 days after treatment. 3 replicates per treatment were evaluated. (1 PPM=1 mg l^−1)

[2] = system: Heliothis virescens (tobacco budworm); assay: Heliothis virescens ovo-larvicide, feeding/contact, eggs on filter paper in Petri dishes; settings: for activity on eggs: egg mortality, 7 days incubation; for AVERAGE DEAD IN % (LARVAE): single compound, 7 days
Source text: as §1, §2, §3, §4
Heliothis Virescens (Tobacco Budworm):
(Ovo-Larvicide, Feeding/Contact)
30-35 fresh eggs (0-24 h old), deposited on filter paper, are placed in Petri dishes on top of a layer of artificial diet and 0.8 ml of diluted test solutions are pipetted onto them. After an incubation period of 7 days, samples are checked for egg and larval mortality. 3 replicates per treatment were evaluated.

[3] = system: Heliothis virescens (tobacco budworm); assay: Heliothis virescens eggs in 24-well microtiter plate on artificial diet, larval mortality; settings: Heliothis virescens, 96 h, read-out: AVERAGE DEAD IN %
Source text: as §1, §2, §3, §4
Heliothis Virescens (Tobacco Budworm)
Eggs (0-24 h old) are placed in 24-well microtiter plate on artificial diet and treated with test solutions (DMSO) by pipetting. After an incubation period of 4 days, samples are checked for larval mortality.

[4] = system: Tetranychus urticae (two spotted spider mite); assay: Tetranychus urticae contact/feeding activity on bean plants, adult mortality
Source text: as §1, §2, §3, §4
Tetranychus Urticae (Two Spotted Spider Mite)
(Contact/Feeding Activity)
Bean plants are infested with mite populations of mixed ages. 1 day after infestation, plants are treated in a spray chamber with diluted test solutions. 1 and 8 days later, samples are checked for adult mortality. 2 replicates per treatment were evaluated.

CCOP(=S)(OCC)Oc1nc(Cl)c(Cl)cc1Cl [Chlorpyriphos, chlorpyrifos]
AVERAGE DEAD IN % AFTER 5 DAYS ([1]; 12.5 PPM AI): 10% and 7% | AVERAGE DEAD IN % AFTER 5 DAYS ([1]; 25 PPM AI): 17% and 10% | AVERAGE DEAD IN % AFTER 5 DAYS ([1]; 50 PPM AI): 30% and 20% | activity on eggs [2]: inactive | AVERAGE DEAD IN % (LARVAE) ([2]; 50 ppm AI): 0% | AVERAGE DEAD IN % (LARVAE) ([2]; 100 ppm AI): 0% | AVERAGE DEAD IN % (LARVAE) ([2]; 200 ppm AI): 30% | pest or weed control at 25 ppm ([3]; single compound at 25 ppm AI): 45% | pest or weed control at 50 ppm ([3]; single compound at 50 ppm AI): 90% | pest or weed control at 100 ppm ([3]; single compound at 100 ppm AI): 100% | pest or weed control at 200 ppm ([3]; single compound at 200 ppm AI): 100% | pest or weed control at 400 ppm ([3]; single compound at 400 ppm AI): 100% | pest or weed control at 800 ppm ([3]; single compound at 800 ppm AI): 100% | AVERAGE DEAD IN % AFTER 8 DAYS ([4]; 50 ppm alone): 0% | AVERAGE DEAD IN % AFTER 8 DAYS ([4]; 100 ppm alone): 20% | AVERAGE DEAD IN % AFTER 8 DAYS ([4]; 200 ppm alone): 63% | AVERAGE DEAD IN % AFTER 1 DAY ([4]; Chlorpyrifos alone 50 ppm AI): 0% | AVERAGE DEAD IN % AFTER 1 DAY ([4]; Chlorpyrifos alone 100 ppm AI): 60% | AVERAGE DEAD IN % AFTER 1 DAY ([4]; Chlorpyrifos alone 200 ppm AI): 88%

CNC(=O)c1cc(C#N)cc(C)c1NC(=O)c1cc(Br)nn1-c1ncccc1Cl [Cyantraniliprole, cyantraniliprole]
AVERAGE DEAD IN % AFTER 5 DAYS ([1]; 0.0125 PPM AI): 23% | AVERAGE DEAD IN % AFTER 5 DAYS ([1]; 0.025 PPM AI): 27% and 30% | AVERAGE DEAD IN % AFTER 5 DAYS ([1]; 0.05 PPM AI): 40% and 50% | activity on eggs [2]: inactive | AVERAGE DEAD IN % (LARVAE) ([2]; 0.2 ppm AI): 23% | AVERAGE DEAD IN % (LARVAE) ([2]; 0.4 ppm AI): 70% and 63% | AVERAGE DEAD IN % (LARVAE) ([2]; 0.8 ppm AI): 82% and 72% | pest or weed control at 0.025 ppm ([3]; Cyantraniliprole alone 0.025 ppm AI): 0% | pest or weed control at 0.05 ppm ([3]; Cyantraniliprole alone 0.05 ppm AI): 0% | pest or weed control at 0.1 ppm ([3]; Cyantraniliprole alone 0.1 ppm AI): 45% | pest or weed control at 0.2 ppm ([3]; Cyantraniliprole alone 0.2 ppm AI): 78% | pest or weed control at 0.4 ppm ([3]; Cyantraniliprole alone 0.4 ppm AI): 90% | pest or weed control at 0.8 ppm ([3]; Cyantraniliprole alone 0.8 ppm AI): 100% | pest or weed control at 0.025 ppm ([3]; single compound at 0.025 ppm AI): 0% | pest or weed control at 0.05 ppm ([3]; single compound at 0.05 ppm AI): 0% | pest or weed control at 0.1 ppm ([3]; single compound at 0.1 ppm AI): 45% | pest or weed control at 0.2 ppm ([3]; single compound at 0.2 ppm AI): 78% | pest or weed control at 0.4 ppm ([3]; single compound at 0.4 ppm AI): 90% | pest or weed control at 0.8 ppm ([3]; single compound at 0.8 ppm AI): 100% | AVERAGE DEAD IN % AFTER 8 DAYS ([4]; 100 ppm alone): 35% | AVERAGE DEAD IN % AFTER 8 DAYS ([4]; 200 ppm alone): 25% | AVERAGE DEAD IN % AFTER 1 DAY ([4]; Cyantraniliprole alone 100 ppm AI): 0% | AVERAGE DEAD IN % AFTER 1 DAY ([4]; Cyantraniliprole alone 200 ppm AI): 10%

Source: US20130085064A1, “PESTICIDAL MIXTURES CONTAINING ISOXAZOLINE DERIVATIVES AND INSECTICIDE OR NEMATOICIDAL BIOLOGICAL AGENT” (priority 2010, published 2013)
